According to patent US20220112217A1, “PYRAZOLOPYRIMIDINE DERIVATIVE AND USE THEREOF AS PI3K INHIBITOR” (MEDSHINE DISCOVERY INC., priority 2018, published 2022):

Experiments:
PI3K alpha = PI3K alpha (Homo sapiens, UniProt P42336); test: In vitro enzyme activity assay (ADP-Glo lipid kinase), PI3K alpha
Description: (§2) An appropriate substrate and ATP were incubated at a suitable condition for lipid kinase reaction, followed by a two-step detection of kinase activity using an ADP-Glo™ kit. Step I: The kinase reaction was terminated and residual ATP was completely removed, leaving ADP only; Step II: A kinase assay reagent was added to convert ADP to ATP by a luciferin/luciferase reaction. Finally, a fluorescence output value was detected and converted into kinase activity.
(§3) • 2) Kit: ADP-Glo™ lipid kinase and PIP2:3PS kit (Promega #V1792)
(§4) The mixture was incubated at 23° C. for 20 min • (10) 2 μL of ATP solution was added, and the mixture was centrifuged at 1000 rpm and was shaken to mix well • (11) The plate was covered, shaken for about 30 s, and incubated for 2 h at 23° C. • (12) 5 μL of ADP-Glo reagent containing 10 mM MgCl2 was added • (13) The mixture was centrifuged at 1000 rpm for 10 s, covered and shaken for about 30 s, and incubated at 23° C. for 60 min • (14) 10 μL of kinase assay reagent was added • (15) The mixture was centrifuged at 1000 rpm for 10 s, and incubated at 23° C. for 60 min • (16) Fluorescence values were measured by an Envision system. • 2. […] The mixture was incubated at 37° C./CO2 for 10 min. • 5) The compound was removed by pipette. Lysis buffer was added at 50 μL/well, and the cells wereincubated on a shaker for 30 min. • 6) After the cells were completely lysed, 16 μL of lysate was transferred to a 384-well plate and 4 μL of prepared AC+D2 in the kit was added. (AC: Eu3+-cryptate antibody binds to phosphorylated AKT, while D2 binds to non-phosphorylated AKT) The mixture was incubated at room temperature for 4 h.

Jeko-1 cell = Jeko-1 cell test (IgM-stimulated, phosphorylated AKT readout); assay type: cell-based; conditions: Homo sapiens, 2 h compound, IgM stimulation 10 min, phospho-AKT
Description: (§1) 7) After incubation, readings at 620 and 665 nm on EnVingen were recorded. • <2> TMD-8 cell viability test • 1) Cell Culture

[1] = In vivo DMPK study, single dose in female Balb/c mice; conditions: for half-life / clearance / Vd / bioavailability: female, Balb/c; for half-life / clearance / Vd / bioavailability / Cmax: mouse, plasma; for half-life: 1 mg/kg, note lists it as an intravenous parameter, read-out: T1/2 (half-life) (converted); for half-life / clearance / Vd / bioavailability / Oral DNAUC (dose-normalized area under curve): mice; for clearance / Vd: intravenous 1 mg/kg; for clearance: read-out: Cl (clearance); for Vd: read-out: Vd (apparent volume of distribution); for bioavailability: oral 3 mg/kg vs intravenous 1 mg/kg, read-out: F % (oral bioavailability); for Cmax: oral 3 mg/kg, female Balb/c mice
Description: Objective: To evaluate the plasma concentration of the compounds and pharmacokinetics after a single dose in female Balb/c mice.
Procedures: 8 healthy adult female Balb/c mice were randomized, 4 for intravenous administration and 4 for oral administration. The compounds were mixed with a proper amount of vehicle for intravenous injection (DMSO/PEG200/water (5:45:50 v/v/v)). The mixture was vortexed and treated with ultrasound to give a 1.0 mg/mL clear solution. The clear solution was filtered through a microporous membrane filter for later use. For the oral group, the vehicle was 0.5% MC/0.2% Tween 80. The compound was mixed with the vehicle, and the mixture was vortexed and ultrasonically treated to give 1.0 mg/mL uniform suspension for later use. The mice were administered intravenously at 1 mg/kg or orally at 3 mg/kg. Whole blood was collected at certain time points, and plasma was separated. The drug concentration was measured by LC-MS/MS, and pharmacokinetic parameters were calculated using
Phoenix WinNonlin software (Pharsight, USA).

PI3K gamma = PI3K gamma (Homo sapiens, UniProt P48736); test: In vitro enzyme activity assay (ADP-Glo lipid kinase), PI3K gamma; conditions: PI3Kγ IC50, ATP 25 μM, PIP2:3PS 50 μM, 120 min
Description: as §2, §3, §4

TMD-8 cell = TMD-8 cell viability test (CellTiter-Glo, 72 h); assay type: cell-based; conditions: Homo sapiens, TMD8
Description: as §1
Cells were regularly passaged. Cells at logarithmic growth phase were transferred to the plate. • 2) Plating • (1). Cells were stained with trypan blue and viable cells were counted. • (2). Cell concentration was adjusted to 7000 cells/well • (3). 90 μL of cell suspension was added to each well of the plate and cell-free medium was added to blank control wells. • (4). The plate was incubated overnight at 37° C., 5% CO2 and 100% relative humidity in an incubator. • 3) Preparation of Plate Containing Compound Stock
(1). Preparation of plate containing 400× compound stock: Compounds were diluted from the highest concentration gradient to lowest concentration with DMSO. • 4) Preparation of 10× compound working solution and treatment • (1). Preparation of 10× compound working solution: 78 μL of cell culture medium was added to a V-bottom 96-well plate, and 2 μL of compound stock solution was pipetted from the plate containing 400× compound stock into the cell cultures of 96-well plate. 2 μL of DMSO was added to the vehicle control wells and blank control wells. After compounds or DMSO was added, the mixture was well mixed by a pipette. • (2). 10 μL of DMSO-cell culture medium mixture solution was added to the vehicle control wells and blank control wells. The final concentration of DMSO was 0.25%. • (3). The 96-well cell plate was incubated in the incubator for another 72 h. • 5) CellTiter-Glo Luminescent Cell Viability Assay
The following procedure was performed according to the instructions of Promega CellTiter-Glo luminescent cell viability assay kit (Promega-G7573). • (1). CellTiter-Glo buffer was thawed and let stand at room temperature. • (2). The CellTiter-Glo substrate was let stand at room temperature. • (3). The CellTiter-Glo buffer was added to a flask of CellTiter-Glo substrate to dissolve the substrate, thereby preparing a CellTiter-Glo working solution. • (4). The solution was vortexed to completely dissolve the substrate. • (5). The plate was incubated at room temperature for 30 min for equilibration. • (6). 50 μL (equal to half the volume of cell culture medium in each well) of CellTiter-Glo working solution was added to each well. The plate was covered by aluminum foil to avoid light. • (7). The plate was shaken on an orbital shaker for 2 min to induce cell lysis. • (8). The plate was let stand at room temperature for 10 min to stabilize the luminescence signals. • (9). The luminescence signals were detected on 2104 EnVision plate reader.

[2] = Plasma protein binding rate, human; assay type: in vitro ADME; conditions: read-out: PPB % (plasma protein binding rate) (converted)
[3] = system: human lymphoma TMD-8 subcutaneous xenograft tumors; test: In vivo efficacy study, TMD-8 subcutaneous xenograft in CB-17 SCID mice; parameters: species or system CB-17 SCID mouse
Description: In Vivo Efficacy Study • Objectives: To evaluate the efficacy of the compounds on human lymphoma TMD-8 subcutaneous xenograft tumors in a CB-17 SCID mouse model. • Procedures: • (1) Cell Culture • Human lymphoma TMD-8 cells (Shanghai Junrui-UFBN1682) were cultivated in an RPMI 1640 medium containing 10% fetal bovine serum, 100 U/mL penicillin and 100 μg/mL streptomycin through monolayer culture in vitro in an incubator at 37° C./5% CO2. The cells were digested with trypsin-EDTA twice a week for passaging as per conventional practice. When the saturation reached 80%-90%, the cells were collected, counted and grafted. • (2) Tumor Cell Grafting
0.2 mL (1×10^7 cells) of TMD-8 cells (along with matrigel in a volume ratio of 1:1) was subcutaneously grafted on the right back of each mouse, and the mice were randomized when the mean tumor volume was 99 mm^3. • (3) Preparation of Test Compound
Vehicle group: 0.5% MC/0.2% Tween 80/99.3% water.
Test compound group: A certain amount of the compound was dissolved in a corresponding volume of vehicle in a brown flask. The mixture was vortexed to give a uniform suspension or clear solution.
The experimental indices were to investigate whether tumor growth was inhibited or delayed or the tumor was cured. Tumor diameters were measured twice weekly using a vernier caliper. The tumor volume was calculated according to the following formula: V=0.5a x b^2, where a and b represent the long diameter and short diameter of the tumor, respectively.
The efficacy of compounds against tumor was evaluated by TGI (%). TGI (%) refers to the rate of tumor growth inhibition.

[4] = Plasma protein binding rate, mouse; assay type: in vitro ADME; conditions: read-out: PPB % (plasma protein binding rate) (converted)
PI3K beta = PI3K beta (Homo sapiens, UniProt P42338); test: In vitro enzyme activity assay (ADP-Glo lipid kinase), PI3K beta
Description: as §2, §3, §4

PI3K delta = PI3K delta (Homo sapiens, UniProt O00329); test: In vitro enzyme activity assay (ADP-Glo lipid kinase), PI3K delta; conditions: PI3Kδ IC50, ATP 40 μM, PIP2:3PS 50 μM, 120 min;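 also: kinase reaction run at 23 °C, then leftover ATP depleted and the ADP formed turned back into ATP, with the luciferin/luciferase signal read as kinase activity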
Description: as §2, §3
The kit comprises: 1 mM PIP2:3PS, 10× lipid dilution buffer, 1 M magnesium chloride, 10 mM ATP, 10 mM ADP, ADP-Glo reagent, detection buffer and substrate. • 3) Plate: OptiPlate-384, white and transparent (PerkinElmer #6007299) Reagent preparation: • 1) 10x reaction buffer: 500 mM HEPES (4-(2-hydroxyethyl)-1-piperazineethanesulfonic acid), pH 7.5, 500 mM NaCl, 9 mM MgCl2; BSA: 10% stock solution, prepared in-house • 2) Condition for final test system: 1× reaction system: 50 mM HEPES, 50 mM NaCl, 3 mM MgCl2, 0.01% BSA (prepared on the day of experiment), 1% DMSO (v/v) +/−compound • 3) Reaction system: 3 μL of enzyme and substrate mixture (1:1) +2 μL of ATP/MgCl2 mixture +5 μL of ADP-Glo reagent +10 μL detection reagent.
The specific experimental procedures are as follows: • 1) Dilution: 50 nL of 100× compound/DMSO solution were transferred into a test plate using Echo • For PI3Kα, the compound was serially diluted by three fold from the highest concentration 0.111 mM to the 10th concentration. • For PI3Kβ/PI3Kδ/PI3Kγ, the compound was serially diluted by three fold from the highest concentration of 1.11 mM to the 10th concentration. • 2) Kinase reaction: • (1) The target compounds were prepared. 50 nL of 100× compound solution or DMSO was added to the corresponding plate • (2) A 3.33 × reaction buffer was prepared • (3) A 3.33× PIP2:3PS solution were prepared; the PIP2:3PS solution should be thawed by vortex for at least 1 min before use • (4) An ATP solution containing 5.25 mM MgCl2 was prepared • (5) 3.33× PI3Kα/PI3Kβ/PI3Kδ/PI3Kγ solutions were prepared • (6) The lipid kinase solution and PIP2:3PS solution were mixed at a volume ratio of 1:1 • (7) The 3.33 × lipid kinase buffer and PIP2:3PS solution were mixed at a volume ratio of 1:1 • (8) 3 μL of the mixed solution of reaction buffer and PIP2:3PS was added to Columns 1 and 2 of the plate • (9) 3 μL of the mixed solution of the enzyme and PIP2:3PS was added to the wells of the plate other than Columns 1 and 2, and was centrifuged for 10 s (1000 rpm). The mixture was incubated at 23° C. for 20 min • (10) 2 μL of ATP solution was added, and the mixture was centrifuged at 1000 rpm and was shaken to mix well • (11) The plate was covered, shaken for about 30 s, and incubated for 2 h at 23° C. • (12) 5 μL of ADP-Glo reagent containing 10 mM MgCl2 was added • (13) The mixture was centrifuged at 1000 rpm for 10 s, covered and shaken for about 30 s, and incubated at 23° C. for 60 min • (14) 10 μL of kinase assay reagent was added • (15) The mixture was centrifuged at 1000 rpm for 10 s, and incubated at 23° C. for 60 min • (16) Fluorescence values were measured by an Envision system. • 2.

[5] = In vivo DMPK study, single dose in female Balb/c mice; conditions: mouse, plasma, po, 1 mg/kg, (1 mpk)
[6] = 100 mg/kg(D0-D21) combined with ACP-196 75 mg/kg(D0-D21)
[7] = 50 mg/kg(D0-D20) combined with ACP-196 50 mg/kg(D0-D17) + 25 mg/kg(D18-D20)

Sequence of PI3K delta (O00329 whole entry): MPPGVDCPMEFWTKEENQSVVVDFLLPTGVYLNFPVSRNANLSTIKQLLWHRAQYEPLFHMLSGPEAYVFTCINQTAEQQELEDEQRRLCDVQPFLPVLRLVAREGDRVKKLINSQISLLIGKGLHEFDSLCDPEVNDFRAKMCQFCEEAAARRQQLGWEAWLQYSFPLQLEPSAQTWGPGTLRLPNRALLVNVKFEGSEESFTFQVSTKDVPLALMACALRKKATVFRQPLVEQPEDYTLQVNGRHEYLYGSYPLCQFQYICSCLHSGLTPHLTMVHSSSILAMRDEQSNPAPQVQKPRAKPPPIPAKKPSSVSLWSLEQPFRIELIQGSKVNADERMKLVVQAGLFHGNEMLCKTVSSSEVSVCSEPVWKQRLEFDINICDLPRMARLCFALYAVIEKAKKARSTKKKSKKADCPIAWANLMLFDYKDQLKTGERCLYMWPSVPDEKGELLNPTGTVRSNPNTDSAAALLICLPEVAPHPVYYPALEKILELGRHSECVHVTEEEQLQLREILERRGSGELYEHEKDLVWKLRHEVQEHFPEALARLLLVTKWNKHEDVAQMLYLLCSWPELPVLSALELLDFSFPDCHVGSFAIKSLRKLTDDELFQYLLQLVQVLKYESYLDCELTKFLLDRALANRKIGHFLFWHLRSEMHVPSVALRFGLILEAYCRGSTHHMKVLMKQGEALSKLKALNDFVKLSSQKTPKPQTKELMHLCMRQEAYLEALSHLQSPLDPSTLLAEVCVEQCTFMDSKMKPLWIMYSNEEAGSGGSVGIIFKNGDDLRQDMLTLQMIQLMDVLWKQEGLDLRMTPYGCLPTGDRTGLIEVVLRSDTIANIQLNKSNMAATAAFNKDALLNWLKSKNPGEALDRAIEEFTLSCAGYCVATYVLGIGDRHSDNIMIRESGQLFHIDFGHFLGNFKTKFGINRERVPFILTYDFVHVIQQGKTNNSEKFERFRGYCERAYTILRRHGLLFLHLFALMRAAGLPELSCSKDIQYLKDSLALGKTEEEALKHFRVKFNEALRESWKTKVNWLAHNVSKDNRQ
Sequence of PI3K delta (P27986 whole entry partner): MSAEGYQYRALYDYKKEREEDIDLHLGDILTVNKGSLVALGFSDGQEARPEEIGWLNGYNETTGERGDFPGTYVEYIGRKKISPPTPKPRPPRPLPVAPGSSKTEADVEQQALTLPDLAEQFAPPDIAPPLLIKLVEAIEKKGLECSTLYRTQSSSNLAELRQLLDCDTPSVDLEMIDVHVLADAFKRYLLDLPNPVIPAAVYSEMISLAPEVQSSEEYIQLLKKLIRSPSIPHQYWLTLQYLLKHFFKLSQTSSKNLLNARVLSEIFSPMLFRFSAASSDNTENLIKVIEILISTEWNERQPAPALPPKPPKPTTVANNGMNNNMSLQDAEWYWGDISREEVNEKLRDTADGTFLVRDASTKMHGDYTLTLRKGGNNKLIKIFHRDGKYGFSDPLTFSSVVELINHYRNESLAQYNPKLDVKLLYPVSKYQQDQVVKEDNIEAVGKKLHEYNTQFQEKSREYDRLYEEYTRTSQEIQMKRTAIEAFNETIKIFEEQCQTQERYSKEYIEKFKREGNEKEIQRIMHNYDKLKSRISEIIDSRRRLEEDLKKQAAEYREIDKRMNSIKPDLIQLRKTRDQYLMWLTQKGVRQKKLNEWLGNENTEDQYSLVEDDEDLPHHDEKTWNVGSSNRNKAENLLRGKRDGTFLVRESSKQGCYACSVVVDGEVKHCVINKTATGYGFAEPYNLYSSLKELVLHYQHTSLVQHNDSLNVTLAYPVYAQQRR
Sequence of PI3K gamma (P48736 whole entry): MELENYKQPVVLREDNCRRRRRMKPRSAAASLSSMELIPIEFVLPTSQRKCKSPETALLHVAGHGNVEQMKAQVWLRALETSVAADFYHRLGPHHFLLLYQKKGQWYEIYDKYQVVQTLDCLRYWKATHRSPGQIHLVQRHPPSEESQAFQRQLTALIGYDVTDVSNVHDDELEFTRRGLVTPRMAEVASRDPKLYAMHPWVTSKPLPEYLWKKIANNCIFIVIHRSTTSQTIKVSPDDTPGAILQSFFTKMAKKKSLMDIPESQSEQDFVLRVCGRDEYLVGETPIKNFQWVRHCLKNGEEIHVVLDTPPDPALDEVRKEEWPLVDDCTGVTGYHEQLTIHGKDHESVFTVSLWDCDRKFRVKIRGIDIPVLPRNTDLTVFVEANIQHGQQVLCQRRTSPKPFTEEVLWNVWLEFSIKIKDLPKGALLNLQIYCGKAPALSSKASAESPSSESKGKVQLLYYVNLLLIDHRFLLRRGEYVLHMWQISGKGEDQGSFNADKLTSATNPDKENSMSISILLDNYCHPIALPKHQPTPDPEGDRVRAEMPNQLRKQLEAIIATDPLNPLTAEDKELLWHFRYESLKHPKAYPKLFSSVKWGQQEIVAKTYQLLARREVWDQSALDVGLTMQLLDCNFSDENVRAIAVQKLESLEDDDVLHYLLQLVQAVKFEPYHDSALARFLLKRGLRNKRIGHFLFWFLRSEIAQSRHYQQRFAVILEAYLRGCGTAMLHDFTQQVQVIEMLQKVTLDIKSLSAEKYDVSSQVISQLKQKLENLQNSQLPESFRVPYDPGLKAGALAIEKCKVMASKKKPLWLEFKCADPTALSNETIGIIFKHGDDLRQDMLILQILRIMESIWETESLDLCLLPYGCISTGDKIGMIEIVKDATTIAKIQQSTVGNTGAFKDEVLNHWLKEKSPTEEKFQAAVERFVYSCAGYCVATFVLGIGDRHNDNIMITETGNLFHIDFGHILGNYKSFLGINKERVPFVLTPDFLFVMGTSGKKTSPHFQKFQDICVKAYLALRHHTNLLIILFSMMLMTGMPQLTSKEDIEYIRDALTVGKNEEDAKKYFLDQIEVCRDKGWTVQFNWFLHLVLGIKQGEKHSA
Sequence of PI3K beta (P42338 whole entry): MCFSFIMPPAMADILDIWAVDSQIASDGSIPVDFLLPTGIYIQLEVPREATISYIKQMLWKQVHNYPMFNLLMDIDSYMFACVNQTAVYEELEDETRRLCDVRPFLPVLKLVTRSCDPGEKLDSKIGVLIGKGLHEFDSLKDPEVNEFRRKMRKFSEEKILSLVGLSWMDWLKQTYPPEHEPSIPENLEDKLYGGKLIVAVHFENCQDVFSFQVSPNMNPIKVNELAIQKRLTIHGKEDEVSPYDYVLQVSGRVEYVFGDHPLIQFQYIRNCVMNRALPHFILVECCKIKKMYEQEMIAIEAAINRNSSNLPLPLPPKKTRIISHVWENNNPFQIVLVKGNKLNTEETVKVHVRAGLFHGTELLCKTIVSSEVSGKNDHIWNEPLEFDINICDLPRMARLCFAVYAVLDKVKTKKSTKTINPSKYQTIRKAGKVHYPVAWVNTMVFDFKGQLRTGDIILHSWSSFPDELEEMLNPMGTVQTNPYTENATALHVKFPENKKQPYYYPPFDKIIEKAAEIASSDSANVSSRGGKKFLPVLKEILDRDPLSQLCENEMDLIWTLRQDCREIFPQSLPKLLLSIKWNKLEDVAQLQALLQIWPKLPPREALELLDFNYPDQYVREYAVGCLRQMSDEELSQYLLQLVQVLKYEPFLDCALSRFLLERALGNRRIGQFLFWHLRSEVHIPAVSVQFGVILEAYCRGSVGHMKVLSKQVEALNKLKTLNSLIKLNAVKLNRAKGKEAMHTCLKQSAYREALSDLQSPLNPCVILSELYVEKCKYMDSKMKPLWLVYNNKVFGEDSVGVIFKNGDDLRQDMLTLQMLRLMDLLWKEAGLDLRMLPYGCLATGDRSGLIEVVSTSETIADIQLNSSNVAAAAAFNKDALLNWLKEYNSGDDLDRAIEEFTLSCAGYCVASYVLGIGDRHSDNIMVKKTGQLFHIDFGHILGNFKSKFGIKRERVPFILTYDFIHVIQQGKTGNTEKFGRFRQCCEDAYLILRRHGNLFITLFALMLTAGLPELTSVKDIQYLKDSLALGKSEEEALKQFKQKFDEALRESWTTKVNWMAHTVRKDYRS
Sequence of PI3K beta (P27986 whole entry partner): as the sequence (P27986 whole entry partner) above
Sequence of PI3K alpha (P42336 whole entry): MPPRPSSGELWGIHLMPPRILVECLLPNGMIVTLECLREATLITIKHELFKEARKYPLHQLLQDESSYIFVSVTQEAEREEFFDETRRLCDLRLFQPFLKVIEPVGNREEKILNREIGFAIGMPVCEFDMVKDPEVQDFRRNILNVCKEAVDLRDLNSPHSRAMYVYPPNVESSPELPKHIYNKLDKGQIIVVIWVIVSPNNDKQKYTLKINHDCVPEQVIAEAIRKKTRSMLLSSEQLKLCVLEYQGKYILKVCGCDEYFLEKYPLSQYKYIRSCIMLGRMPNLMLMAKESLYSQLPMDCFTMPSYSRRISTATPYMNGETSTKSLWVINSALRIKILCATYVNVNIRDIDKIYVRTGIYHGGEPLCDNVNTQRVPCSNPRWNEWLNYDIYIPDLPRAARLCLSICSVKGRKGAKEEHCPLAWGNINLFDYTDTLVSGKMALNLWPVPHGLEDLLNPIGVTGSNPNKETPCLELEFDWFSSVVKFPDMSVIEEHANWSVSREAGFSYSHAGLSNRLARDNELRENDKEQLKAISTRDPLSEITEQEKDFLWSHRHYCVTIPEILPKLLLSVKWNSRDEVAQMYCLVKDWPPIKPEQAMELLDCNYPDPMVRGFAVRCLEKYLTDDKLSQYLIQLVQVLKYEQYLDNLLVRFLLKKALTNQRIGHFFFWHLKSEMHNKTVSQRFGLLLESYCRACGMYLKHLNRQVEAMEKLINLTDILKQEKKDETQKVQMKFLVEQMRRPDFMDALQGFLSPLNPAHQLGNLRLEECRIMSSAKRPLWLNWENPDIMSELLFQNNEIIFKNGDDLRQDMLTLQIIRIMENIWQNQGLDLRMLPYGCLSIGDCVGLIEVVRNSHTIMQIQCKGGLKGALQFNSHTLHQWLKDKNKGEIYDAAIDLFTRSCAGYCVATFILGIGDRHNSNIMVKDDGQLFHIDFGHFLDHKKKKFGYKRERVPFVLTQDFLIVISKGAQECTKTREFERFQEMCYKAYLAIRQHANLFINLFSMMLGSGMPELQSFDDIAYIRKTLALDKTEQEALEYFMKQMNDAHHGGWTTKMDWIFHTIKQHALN
Sequence of PI3K alpha (P27986 whole entry partner): as the sequence (P27986 whole entry partner) above

Row | Compound | IC50 (PI3K alpha) [µM] | IC50 (Jeko-1 cell) [µM] | half-life [1] [h] | clearance [1] [mL/min/kg] | Vd [1] [L/kg] | bioavailability [1] [%] | Cmax [1] [nM] | Oral DNAUC (dose-normalized area under curve) [1] [nM · h/mpk] | IC50 (PI3K gamma) [µM] | fraction unbound [2] | fraction unbound [4] | IC50 (PI3K beta) [µM] | IC50 (PI3K delta) [µM] | Cmax [5] [nM] | IC50 (TMD-8 cell) [µM] | TGI [3, 6] [%] | TGI [3, 7] [%] | TGI ([3]; 25 mg/kg(D0-D20) combined with ACP-196 50 mg/kg(D0-D17) + 25 mg/kg(D18-D20)) [%] | TGI ([3]; 75 mg/kg(D0-D20) combined with ACP-196 50 mg/kg(D0-D17) + 25 mg/kg(D18-D20)) [%]
1 | CC(C)Oc1ccc(-c2nn([C@@H](C)c3oc4ccc(F)cc4c(=O)c3-c3cccc(F)c3)c3ncnc(N)c23)cc1F [TGR-1202, reference compound] | > 10 | 0.478 | 5.66 | 8.54 | 4.2 | 91.7 | 651 | 3043 | 0.818 | 0.003 | 0.003 | > 10 | – | – | 4.05 | 103.25 | – | – | –
2 | COc1ncc(-c2nn(C(C)c3nc4ccc(F)cn4c(=O)c3-c3cccc(F)c3)c3ncnc(N)c23)s1 (single isomer, unassigned) [WX007] | – | 0.125 | 0.644 | 36.7 | 1.75 | 84.7 | 1590 | 674.0 | 0.188 | 0.217 | 0.086 | – | 0.00188 | – | 0.589 | 103.16 | – | – | –
3 | COCc1ncc(-c2nn(C(C)c3nc4ccc(F)cn4c(=O)c3-c3cccc(F)c3)c3ncnc(N)c23)s1 (stereo not drawn) [WX026] | – | – | 1.99 | – | – | – | 5260 | 2406 | 2.22 | 0.263 | 0.146 | – | 0.0335 | – | – | – | – | – | –
4 | COc1ncc(-c2nn(C(C)c3nc4ccc(F)cn4c(=O)c3-c3cccc(F)c3)c3ncnc(N)c23)cc1C#N (single isomer, unassigned) [WX005] | > 10 | 0.828 | – | – | – | – | – | – | 8.06 | – | – | > 10 | 0.12 | – | – | – | – | – | –
5 | CC(C)n1cc(-c2nn(C(C)c3nc4ccc(F)cn4c(=O)c3-c3cccc(F)c3)c3ncnc(N)c23)cn1 (stereo not drawn) [WX038] | – | – | 1.76 | 14.2 | 1.28 | 83.8 | – | 1825 | 2.44 | – | – | – | 0.0399 | 1400 | 2.32 | – | – | – | –
6 | CC(C)Oc1ccc(-c2nn(C(C)c3nc4ccc(F)cn4c(=O)c3-c3cccc(F)c3)c3ncnc(N)c23)cc1F (single isomer, unassigned) [WX001] | > 10 | 0.614 | 4.8 | 4.44 | 2.02 | 101 | 1610 | 7179 | 0.472 | 0.034 | 0.023 | > 10 | 0.397 | – | 2.97 | 103.95 | 108.14 | 108.10 | 108.10

More lines, main results first:

Row | IC50 (PI3K alpha) [µM] | IC50 (Jeko-1 cell) [µM] | half-life [1] [h] | clearance [1] [mL/min/kg] | Vd [1] [L/kg] | bioavailability [1] [%] | Cmax [1] [nM] | Oral DNAUC (dose-normalized area under curve) [1] [nM · h/mpk] | IC50 (PI3K gamma) [µM] | fraction unbound [2] | fraction unbound [4] | IC50 (PI3K beta) [µM] | IC50 (PI3K delta) [µM] | Cmax [5] [nM] | Compound | IC50 (TMD-8 cell) [µM] | TGI [3, 6] [%] | TGI [3, 7] [%] | TGI ([3]; 25 mg/kg(D0-D20) combined with ACP-196 50 mg/kg(D0-D17) + 25 mg/kg(D18-D20)) [%] | TGI ([3]; 75 mg/kg(D0-D20) combined with ACP-196 50 mg/kg(D0-D17) + 25 mg/kg(D18-D20)) [%]
7 | > 10 | 0.58 | – | – | – | – | 3180 | 2820 | 2.05 | 0.256 | 0.192 | > 10 | 0.0543 | – | COc1ccc(-c2nn(C(C)c3nc4ccc(F)cn4c(=O)c3-c3cccc(F)c3)c3ncnc(N)c23)cn1 (single isomer, unassigned) [WX012] | – | – | – | – | –
8 | > 10 | 1.32 | – | – | – | – | – | – | 1.22 | – | – | > 10 | 0.257 | – | CC(C)Oc1ccc(-c2nn(C(C)c3nc4ccc(F)cn4c(=O)c3-c3cccc(F)c3)c3ncnc(N)c23)cn1 (single isomer, unassigned) [WX004] | – | – | – | – | –
9 | – | – | 3.15 | 5.54 | 1.43 | 49.3 | 2620 | 2583 | 3.59 | – | – | – | 0.0469 | – | COc1ncc(-c2nn(C(C)c3nc4ccc(F)cn4c(=O)c3-c3cccc(F)c3)c3ncnc(N)c23)cn1 (stereo not drawn) [WX042] | 2.79 | – | 108.01 | – | –
